According to patent US20240158446A1, “CYCLIC COMPOUND HAVING SELECTIVE INHIBITORY ACTION ON KRAS OVER HRAS AND NRAS” (CHUGAI SEIYAKU KABUSHIKI KAISHA, priority 2021, published 2024):

What was measured:
[1] = target: GDP-bound HRAS wild-type protein (Homo sapiens, UniProt P01112); assay: Binding to HRAS by surface plasmon resonance (SPR), Single Cycle Kinetics; settings: SPR KD ratio HRAS/KRAS, class symbols
[2] = target: GDP-bound KRAS wild-type protein (Homo sapiens, UniProt P01116); assay: Binding to KRAS by surface plasmon resonance (SPR), Single Cycle Kinetics; settings: SPR Single Cycle Kinetics, GDP-bound KRAS wild-type protein, 1:1 binding model; read-out: KRAS KD
Chain of GDP-bound KRAS wild-type protein (P01116 whole entry): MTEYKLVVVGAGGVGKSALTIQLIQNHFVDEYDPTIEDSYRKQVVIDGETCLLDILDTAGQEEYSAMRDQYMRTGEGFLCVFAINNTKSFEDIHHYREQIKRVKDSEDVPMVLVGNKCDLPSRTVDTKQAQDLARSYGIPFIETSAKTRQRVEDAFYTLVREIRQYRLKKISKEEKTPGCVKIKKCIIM

[3] = target: GDP-bound NRAS wild-type protein (Homo sapiens, UniProt P01111); assay: Binding to NRAS by surface plasmon resonance (SPR), Single Cycle Kinetics; settings: SPR KD ratio NRAS/KRAS, class symbols
Chain of GDP-bound NRAS wild-type protein (P01111 whole entry): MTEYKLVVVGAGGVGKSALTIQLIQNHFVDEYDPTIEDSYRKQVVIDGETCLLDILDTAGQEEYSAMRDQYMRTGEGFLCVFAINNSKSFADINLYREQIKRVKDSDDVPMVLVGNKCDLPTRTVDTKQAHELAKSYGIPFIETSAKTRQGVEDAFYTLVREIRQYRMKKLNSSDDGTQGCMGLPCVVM

Chain of GDP-bound HRAS wild-type protein (P01112 whole entry): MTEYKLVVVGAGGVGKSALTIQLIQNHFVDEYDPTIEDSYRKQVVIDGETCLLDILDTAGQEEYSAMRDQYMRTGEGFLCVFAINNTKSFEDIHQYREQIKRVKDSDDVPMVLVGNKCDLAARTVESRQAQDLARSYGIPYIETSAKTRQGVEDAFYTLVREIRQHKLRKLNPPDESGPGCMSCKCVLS

Compound | HRAS/KRAS (ratio of KD value with respect to GDP-bound HRAS wild-type protein to KD value with respect to KRAS) [1] | Kd [2] [nM] | NRAS/KRAS (ratio of KD value with respect to GDP-bound NRAS wild-type protein to KD value with respect to KRAS) [3]
CCO[C@@H]1C[C@H]2C(=O)NC3(CC(C)(C)C3)C(=O)N(C)[C@@H](C3CCCC3)C(=O)N(C)[C@H](C(=O)N3CCCC3)CC(=O)N(C)[C@H]3CCC/C=C/c4ccc(cc4)C[C@@H](C(=O)N(C)CC(=O)N[C@@H](CCc4cc(F)c(C(F)(F)F)c(F)c4)C(=O)N2C1)N1CC/C=C\C[C@@H](C1=O)N(C)C(=O)CN(C)C(=O)[C@H]([C@@H](C)CC)NC3=O [PP2574, (1S,7S,11R,13S,19S,22S,26S,29S,35S,37Z,47E)-19-cyclopentyl-7-[2-[3,5-difluoro-4-(trifluoromethyl)phenyl]ethyl]-11-ethoxy-3,3′,3′,18,21,25,31,34-octamethyl-29-[(1S)-1-methylpropyl]-22-(pyrrolidine-1-carbonyl)spiro[3,6,9,15,18,21,25,28,31,34,41-undecazapentacyclo[24.15.10.2^43,46.1^35,41.0^9,13]tetrapentaconta-37,43(53),44,46(52),47-pentaene-16,1′-cyclobutane]-2,5,8,14,17,20,24,27,30,33,54-undecone] | A (a compound having 10 or more and less than 20 is denoted as A) | 0.051 | A (a compound having 10 or more and less than 20 is denoted as A)
CCO[C@@H]1C[C@H]2C(=O)NC3(CC(C)(C)C3)C(=O)N(C)[C@@H](C(CC)CC)C(=O)N(C)[C@H](C(=O)N(C)C)CC(=O)N(C)[C@H]3CCC/C=C/c4ccc(cc4)C[C@@H](C(=O)N(C)CC(=O)N[C@@H](CCc4cc(F)c(C(F)(F)F)c(F)c4)C(=O)N2C1)N1CC/C=C\C[C@@H](C1=O)N(C)C(=O)CN(C)C(=O)[C@H]([C@@H](C)CC)NC3=O [PP2575] | A (a compound having 10 or more and less than 20 is denoted as A) | 0.086 | A (a compound having 10 or more and less than 20 is denoted as A)
CCO[C@@H]1C[C@H]2C(=O)NC3(CC(C)(C)C3)C(=O)N(C)[C@@H](C(CC)CC)C(=O)N(C)[C@H](C(=O)N3CCCC3)CC(=O)N(C)[C@H]3CCC/C=C/c4ccc(cc4)C[C@@H](C(=O)N(C)CC(=O)N[C@@H](CCc4cc(F)c(C(F)(F)F)c(F)c4)C(=O)N2C1)N1CC/C=C\C[C@@H](C1=O)N(C)C(=O)CN(C)C(=O)[C@H]([C@@H](C)CC)NC3=O [PP2576] | A (a compound having 10 or more and less than 20 is denoted as A) | 0.14 | A (a compound having 10 or more and less than 20 is denoted as A)
CCO[C@@H]1C[C@H]2C(=O)NC3(CC(C)(C)C3)C(=O)N(C)[C@@H](C3CCCC3)C(=O)N(C)[C@H](C(=O)N(C)CC)CC(=O)N(C)[C@H]3CCC/C=C/c4ccc(cc4)C[C@@H](C(=O)N(C)CC(=O)N[C@@H](CCc4ccc(Cl)c(Cl)c4)C(=O)N2C1)N1CC/C=C\C[C@@H](C1=O)N(C)C(=O)CN(C)C(=O)[C@H]([C@@H](C)CC)NC3=O [PP2577] | A (a compound having 10 or more and less than 20 is denoted as A) | 0.12 | A (a compound having 10 or more and less than 20 is denoted as A)
CCO[C@@H]1C[C@H]2C(=O)NC3(CC(C)(C)C3)C(=O)N(C)[C@@H](C3CCCC3)C(=O)N(C)[C@H](C(=O)N3CCCCC3)CC(=O)N(C)[C@H]3CCC/C=C/c4ccc(cc4)C[C@@H](C(=O)N(C)CC(=O)N[C@@H](CCc4ccc(Cl)c(Cl)c4)C(=O)N2C1)N1CC/C=C\C[C@@H](C1=O)N(C)C(=O)CN(C)C(=O)[C@H]([C@@H](C)CC)NC3=O [PP2578] | A (a compound having 10 or more and less than 20 is denoted as A) | 0.27 | AA (a compound having 20 or more is denoted as AA)
CCO[C@@H]1C[C@H]2C(=O)NC3(CC(C)(C)C3)C(=O)N(C)[C@@H](C(CC)CC)C(=O)N(C)[C@H](C(=O)N(C)C)CC(=O)N(C)[C@H]3CCC/C=C/c4ccc(cc4)C[C@@H](C(=O)N(C)CC(=O)N[C@@H](CCc4ccc(Cl)c(Cl)c4)C(=O)N2C1)N1CC/C=C\C[C@@H](C1=O)N(C)C(=O)CN(C)C(=O)[C@H]([C@@H](C)CC)NC3=O [PP2580] | A (a compound having 10 or more and less than 20 is denoted as A) | 0.2 | AA (a compound having 20 or more is denoted as AA)
CCO[C@@H]1C[C@H]2C(=O)NC3(CC(C)(C)C3)C(=O)N(C)[C@@H](C(CC)CC)C(=O)N(C)[C@H](C(=O)N3CCCC3)CC(=O)N(C)[C@H]3CCC/C=C/c4ccc(cc4)C[C@@H](C(=O)N(C)CC(=O)N[C@@H](CCc4ccc(Cl)c(Cl)c4)C(=O)N2C1)N1CC/C=C\C[C@@H](C1=O)N(C)C(=O)CN(C)C(=O)[C@H]([C@@H](C)CC)NC3=O [PP2581] | A (a compound having 10 or more and less than 20 is denoted as A) | 0.21 | AA (a compound having 20 or more is denoted as AA)
CCO[C@@H]1C[C@H]2C(=O)NC3(CC(C)(C)C3)C(=O)N(C)[C@@H](C3CCCC3)C(=O)N(C)[C@H](C(=O)N3CCCC3)CC(=O)N(C)[C@H]3CCC/C=C/c4ccc(cc4)C[C@@H](C(=O)N(C)CC(=O)N[C@@H](CCc4cc(F)c(C(F)(F)F)c(F)c4)C(=O)N2C1)N1CC/C=C\C[C@@H](C1=O)N(C)C(=O)CN(C1CC1)C(=O)[C@H]([C@@H](C)CC)NC3=O [PP2583] | A (a compound having 10 or more and less than 20 is denoted as A) | 0.11 | A (a compound having 10 or more and less than 20 is denoted as A)
CCO[C@@H]1C[C@H]2C(=O)NC3(CC(C)(C)C3)C(=O)N(C)[C@@H](C3CCCC3)C(=O)N(C)[C@H](C(=O)N(C)CC)CC(=O)N(C)[C@H]3CCCC/C=C/c4ccc(cc4)C[C@@H](C(=O)N(C)CC(=O)N[C@@H](CCc4ccc(Cl)c(Cl)c4)C(=O)N2C1)N1CC/C=C\C[C@@H](C1=O)N(C)C(=O)CN(C)C(=O)[C@H]([C@@H](C)CC)NC3=O [PP2592] | A (a compound having 10 or more and less than 20 is denoted as A) | 0.13 | A (a compound having 10 or more and less than 20 is denoted as A)
CCO[C@@H]1C[C@H]2C(=O)NC3(CC(C)(C)C3)C(=O)N(C)[C@@H](C3CCCC3)C(=O)N(C)[C@H](C(=O)N3CCCC3)CC(=O)N(C)[C@H]3CCCC/C=C/c4ccc(cc4)C[C@@H](C(=O)N(C)CC(=O)N[C@@H](CCc4ccc(Cl)c(Cl)c4)C(=O)N2C1)N1CC/C=C\C[C@@H](C1=O)N(C)C(=O)CN(C)C(=O)[C@H]([C@@H](C)CC)NC3=O [PP2593] | A (a compound having 10 or more and less than 20 is denoted as A) | 0.15 | A (a compound having 10 or more and less than 20 is denoted as A)
